From ChEMBL document CHEMBL1125004, “Chemistry and pharmacology of the non-benzodiazepine anxiolytic enciprazine and related compounds” (1990)
Activity calls are given as the source filed them. The calls are words filed in the database; no cut-off is given here.

What was measured:
Mus musculus [1] = assay: Antiaggressive anxiolytic activity in the electroshock-induced fighting test in mice (po); Range (9.6-16.7); format: functional
Mus musculus [2] = organism: Mus musculus; assay: Effect on hexobarbital induced sleep was determined in hexobarbital potentiation test; Range (172.3-227.4); format: functional
Mus musculus [3] = assay: Antiaggressive anxiolytic activity in the electroshock-induced fighting test in mice (po); Range (0.58-2.63); format: functional
Mus musculus [4] = organism: Mus musculus; assay: Ataxic activity in mice by rotarod test; Range (86.2-116.6); format: functional
[5] = Ratio of ED50 (hexobarbital) to that of ED50 (fighting); format: functional
[6] = Ratio of ED50 (rotarod) to that of ED50 (fighting); format: functional
Mus musculus [7] = organism: Mus musculus; assay: Effect on alcohol induced sleep was determined in ethanol potentiation test; Range (26.6-77.9); format: functional
Mus musculus [8] = assay: Effect on hexobarbital induced sleep was determined in hexobarbital potentiation test (po); Range (36.0-59.6); format: functional
Mus musculus [9] = assay: Antiaggressive anxiolytic activity in the electroshock-induced fighting test in mice (po); Range (0.9-1.8); format: functional
Mus musculus [10] = organism: Mus musculus; assay: Ataxic activity in mice by rotarod test; Range (89.6-160.6); format: functional
Rattus norvegicus [11] = assay: Antiaggressive anxiolytic activity in the hexagonal maze test in rat after ip administration of 0.3 mg/kg; format: functional; conditions: route intraperitoneal
Monkey [12] = assay: Tested for ability to maintain self-administration after administration of 0.3 mg/kg in monkey 3017 Range (28-50); format: functional, Cercopithecidae
Monkey [13] = assay: Tested for ability to maintain self-administration after administration of 0.3 mg/kg in monkey 3038 Range (12-32); format: functional, Cercopithecidae
Monkey [14] = assay: Tested for ability to maintain self-administration after administration of 0.3 mg/kg in monkey 9079 Range (32-53); format: functional, Cercopithecidae
Monkey [15] = assay: Tested for ability to maintain self-administration after administration of 0.3 mg/kg in monkey 9083 Range (14-23); format: functional, Cercopithecidae
Monkey [16] = assay: Tested for ability to maintain self-administration after administration of 0.56 mg/kg in monkey 9079 Range (15-18); format: functional, Cercopithecidae
Monkey [17] = assay: Tested for ability to maintain self-administration after administration of 0.01 mg/kg in monkey 2036 Range (25-28); format: functional, Cercopithecidae
Monkey [18] = assay: Tested for ability to maintain self-administration after administration of 0.01 mg/kg in monkey 2037 Range (33-51); format: functional, Cercopithecidae
Monkey [19] = assay: Tested for ability to maintain self-administration after administration of 0.01 mg/kg in monkey 3017 Range (14-22); format: functional, Cercopithecidae
Monkey [20] = assay: Tested for ability to maintain self-administration after administration of 0.03 mg/kg in monkey 2036 Range (30-36); format: functional, Cercopithecidae
Monkey [21] = assay: Tested for ability to maintain self-administration after administration of 0.03 mg/kg in monkey 2037 Range (63-73); format: functional, Cercopithecidae
Monkey [22] = assay: Tested for ability to maintain self-administration after administration of 0.03 mg/kg in monkey 3017 Range (26-29); format: functional, Cercopithecidae
Monkey [23] = assay: Tested for ability to maintain self-administration after administration of 0.03 mg/kg in monkey 3038 Range (0-14); format: functional, Cercopithecidae
Monkey [24] = assay: Tested for ability to maintain self-administration after administration of 0.03 mg/kg in monkey 9083 Range (19-47); format: functional, Cercopithecidae
Monkey [25] = assay: Tested for ability to maintain self-administration after administration of 0.1 mg/kg in monkey 2036 Range (37-43); format: functional, Cercopithecidae
Monkey [26] = assay: Tested for ability to maintain self-administration after administration of 0.1 mg/kg in monkey 2037; format: functional, Cercopithecidae
Monkey [27] = assay: Tested for ability to maintain self-administration after administration of 0.1 mg/kg in monkey 3017 Range ([…]); format: functional, Cercopithecidae
Monkey [28] = assay: Tested for ability to maintain self-administration after administration of 0.1 mg/kg in monkey 3038 Range (42-58); format: functional, Cercopithecidae
Monkey [29] = assay: Tested for ability to maintain self-administration after administration of 0.1 mg/kg in monkey 9079 Range (5-20); format: functional, Cercopithecidae
Monkey [30] = assay: Tested for ability to maintain self-administration after administration of 0.1 mg/kg in monkey 9083 Range (20-32); format: functional, Cercopithecidae
Monkey [31] = assay: Tested for ability to maintain self-administration after administration of 0.3 mg/kg in monkey 2036 Range (10-12); format: functional, Cercopithecidae
Rattus norvegicus [32] = assay: Effect on piloerection after oral administration of 100 mg/kg in rat was determined; '-' No effect; format: functional, organism-based; parameters: dose 100 mg/kg
Rattus norvegicus [33] = assay: Effect on piloerection after oral administration of 50 mg/kg in rat was determined; '-' No effect; format: functional, organism-based; parameters: dose 50 mg/kg
Rattus norvegicus [34] = assay: Effect on restlessness after oral administration of 100 mg/kg in rat was determined; '-' No effect; format: functional, organism-based; parameters: dose 100 mg/kg
Rattus norvegicus [35] = assay: Effect on restlessness after oral administration of 50 mg/kg in rat was determined; '-' No effect; format: functional, organism-based; parameters: dose 50 mg/kg
Rattus norvegicus [36] = assay: Effect on salivation after oral administration of 100 mg/kg in rat was determined; '-' No effect; format: functional, organism-based; parameters: dose 100 mg/kg
Rattus norvegicus [37] = assay: Effect on jumping after oral administration of 100 mg/kg in rat was determined; '-' No effect; format: functional, organism-based; parameters: dose 100 mg/kg
Rattus norvegicus [38] = assay: Effect on jumping after oral administration of 50 mg/kg in rat was determined; '-' No effect; format: functional, organism-based; parameters: dose 50 mg/kg
Rattus norvegicus [39] = assay: Effect on diarrheal after oral administration of 100 mg/kg in rat was determined; '-' No effect; format: functional, organism-based; parameters: dose 100 mg/kg
Rattus norvegicus [40] = assay: Effect on diarrheal after oral administration of 50 mg/kg in rat was determined; '-' No effect; format: functional, organism-based; parameters: dose 50 mg/kg
Rattus norvegicus [41] = assay: Effect on salivation after oral administration of 50 mg/kg in rat was determined; '-' No effect; format: functional, organism-based; parameters: dose 50 mg/kg
Rattus norvegicus [42] = assay: Effect on tremor after oral administration of 100 mg/kg in rat was determined; '-' No effect; format: functional, organism-based; parameters: dose 100 mg/kg
Rattus norvegicus [43] = assay: Effect on tremor after oral administration of 50 mg/kg in rat was determined; '-' No effect; format: functional, organism-based; parameters: dose 50 mg/kg
[44] = Ratio of ED50 (ethanol) to that of ED50 (fighting); format: functional
Mus musculus [45] = organism: Mus musculus; assay: Effect on hexobarbital induced sleep was determined in hexobarbital potentiation test; Range (9.6-17.1); format: functional
Mus musculus [46] = assay: Antiaggressive anxiolytic activity in the electroshock-induced fighting test in mice (po); Range (1.03-4.7;); format: functional
Mus musculus [47] = organism: Mus musculus; assay: Ataxic activity in mice by rotarod test; Range (2.2-6.4); format: functional

SMILES: COc1cc(OCC(O)CN2CCN(c3ccc(C)c(C)c3)CC2)cc(OC)c1OC.Cl (stereo unspecified)
- ED50 (Mus musculus [1]): 13 mg/kg

SMILES: COc1cc(OCC(O)CN2CCN(c3ccccc3O)CC2)cc(OC)c1OC (stereo unspecified)
- ED50 (Mus musculus [2]): 200 mg/kg
- ED50 (Mus musculus [3]): 1.3 mg/kg
- ED50 (Mus musculus [4]): 100 mg/kg
- Therapeutic index [5]: 154
- Therapeutic index [6]: 77

SMILES: COc1ccccc1N1CCN(CC(O)COc2cc(OC)c(OC)c(OC)c2)CC1.Cl (stereo unspecified)
- ED50 (Mus musculus [7]): 45.5 mg/kg
- ED50 (Mus musculus [8]): 46.4 mg/kg
- ED50 (Mus musculus [9]): 1.4 mg/kg
- ED50 (Mus musculus [10]): 120 mg/kg
- Prolongation (Rattus norvegicus [11]): 3.2%

SMILES: CCN(CC)CCN1C(=O)CN=C(c2ccccc2F)c2cc(Cl)ccc21 [FLURAZEPAM]
- Effect (Monkey [12]): 40.3
- Effect (Monkey [13]): 22
- Effect (Monkey [14]): 44.7
- Effect (Monkey [15]): 18.3
- Effect (Monkey [16]): 16.7
- Effect (Monkey [17]): 26
- Effect (Monkey [18]): 40.7
- Effect (Monkey [19]): 17.7
- Effect (Monkey [20]): 33
- Effect (Monkey [21]): 68
- Effect (Monkey [22]): 27.5
- Effect (Monkey [23]): 8
- Effect (Monkey [24]): 29
- Effect (Monkey [25]): 40
- Effect (Monkey [26]): 33
- Effect (Monkey [27]): 54.7
- Effect (Monkey [28]): 50
- Effect (Monkey [29]): 12.5
- Effect (Monkey [30]): 26.3
- Effect (Monkey [31]): 11

SMILES: COc1ccccc1N1CCN(CC(O)COc2cc(OC)c(OC)c(OC)c2)CC1 (stereo unspecified)
- Effect (Rattus norvegicus [32]): inactive
- Effect (Rattus norvegicus [33]): inactive
- Effect (Rattus norvegicus [34]): inactive
- Effect (Rattus norvegicus [35]): inactive
- Effect (Rattus norvegicus [36]): inactive
- Effect (Rattus norvegicus [37]): inactive
- Effect (Rattus norvegicus [38]): inactive
- Effect (Rattus norvegicus [39]): inactive
- Effect (Rattus norvegicus [40]): inactive
- Effect (Rattus norvegicus [41]): inactive
- Effect (Rattus norvegicus [42]): inactive
- Effect (Rattus norvegicus [43]): inactive
- Therapeutic index [44]: 32.5
- Therapeutic index [5]: 33
- Therapeutic index [6]: 86

SMILES: CN1C(=O)CC(=O)N(c2ccccc2)c2cc(Cl)ccc21 [CLOBAZAM]
- ED50 (Mus musculus [45]): 13.2 mg/kg
- ED50 (Mus musculus [46]): 2.35 mg/kg
- ED50 (Mus musculus [47]): 4.1 mg/kg
- Therapeutic index [5]: 5.6
- Therapeutic index [6]: 1.8
